The record followed here is paper PMC6374188 (Organic & biomolecular chemistry, 2019).

Molecules are shown by their SMILES.

The target of experiment [1] is T1, GlbB (Caldimonas brevitalea, UniProt A8KCI8).
T1 sequence (A8KCI8 1-286): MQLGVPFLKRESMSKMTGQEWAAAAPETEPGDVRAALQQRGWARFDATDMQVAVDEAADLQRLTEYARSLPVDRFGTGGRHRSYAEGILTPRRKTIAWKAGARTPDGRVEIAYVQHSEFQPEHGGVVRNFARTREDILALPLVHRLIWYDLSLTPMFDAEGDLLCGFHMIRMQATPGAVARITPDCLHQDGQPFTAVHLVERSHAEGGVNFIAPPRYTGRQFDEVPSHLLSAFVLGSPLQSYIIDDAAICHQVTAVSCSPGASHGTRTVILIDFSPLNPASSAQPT
The experiment is described as follows: steady-state kinetics of hydroxylation. Particulars: Fe(II)/alpha-ketoglutarate-dependent C4 hydroxylation. Format: biochemical.

Experiment [2] addresses T1, GlbB. In words: steady-state kinetics of oxidation. It is filed as biochemical. Particulars: Fe(II)/alpha-ketoglutarate-dependent; product is the sulfoxide.

As for `CC(C)C[C@H](N)C(=O)O` [L-Leu], the KM result in experiment [1] is “steady-state kinetic parameters were obtained for hydroxylation of L-Lys, L-Leu, and L-Met (Figure S5)”.

As to `CSCC[C@H](N)C(=O)O` [L-Met], the KM entry in experiment [2] was “steady-state kinetic parameters were obtained for hydroxylation of L-Lys, L-Leu, and L-Met (Figure S5)”.

With `NCCCC[C@H](N)C(=O)O` [compound 3, L-Lys], the KM entry in experiment [1] is “steady-state kinetic parameters were obtained for hydroxylation of L-Lys, L-Leu, and L-Met (Figure S5)”.
